pIC50: −log10 of the molar value. The source made the active and inactive calls. The rule behind the calls is not given here.
assay: modulators of 2-deoxyglucose-induced H9c2 death, dose response, myocardial damage modulator project, cell-based, ATPlite luminescence, rat, set 2 (AID 602210); conditions: H9c2 rat cardiomyoblasts, 2-deoxyglucose-induced death, 2 h

Structure (SMILES)	IC50	pIC50
O=C(c1cc(-c2cccnc2)nc2ccc(Br)cc12)N1CCN(c2ncccn2)CC1	16.2 µM (inactive)	–
CCOC(=O)C1=C(CC)Nc2ccccc2N=C1NC(=O)c1ccc(S(=O)(=O)N(C)C)cc1	> 79 µM (inactive)	–
CC(=O)c1cccc(-c2cnc3c(NC=O)cc(-c4ccc(F)cc4)cn23)c1	> 79 µM (inactive)	–
Cc1ccc(Cn2c(CCNc3nc(-c4ccc(Cl)c([N+](=O)[O-])c4)cs3)nc3cc(C(=O)NCCCO)ccc32)cc1	> 79 µM (inactive)	–
CCOC(=O)c1ccc(-c2ccc(/C=C(\C#N)C(=O)NCC3CCCO3)o2)cc1 (centres undefined)	> 79 µM (inactive)	–
CC(C)CCN(C(=O)CNC(=O)c1ccco1)C(C(=O)NC1CCCCC1)c1ccco1 (centres undefined)	> 79 µM (inactive)	–
Cc1ccccc1NP(=O)(Oc1ccccc1F)Oc1ccccc1F	> 79 µM (inactive)	–
CCOC(=O)C(Cc1ccc(NC(=O)/C(=C/c2ccc(OC(C)=O)cc2)NC(C)=O)cc1)N1C(=O)c2ccccc2C1=O (centres undefined)	15.6 µM (inactive)	–
O=C(C(=O)N(Cc1ccccc1)Cc1ccccc1)c1c(-c2ccccc2)[nH]c2ccccc12	–	5.73
COc1ccc(N(Cc2cc3cc(OC)ccc3[nH]c2=O)C(=O)c2cccnc2)cc1	> 79 µM (inactive)	–
CCC(=O)Nc1cccc(-c2nnc(-c3cccc(NC(=O)CC)c3)o2)c1	> 79 µM (inactive)	–
N#Cc1cnn2cc(-c3ncc(C(F)(F)F)cc3Cl)cnc12	47.7 µM (inactive)	–
COc1cccc(-c2cnc3c(NC(C)=O)cc(-c4cc(OC)c(OC)c(OC)c4)cn23)c1	> 79 µM (inactive)	–
CC(=O)Nc1ccc(NS(=O)(=O)c2cc(-c3n[nH]c(=O)c4ccccc34)ccc2C)cc1	44 µM (inactive)	–
C[C@H](NC(=O)c1nc[nH]c1C(=O)NCC(=O)OCc1ccccc1)c1ccccc1	14.3 µM (inactive)	–
Cn1c(=O)c2[nH]c(NN=Cc3cccc(Br)c3)nc2n(C)c1=O	–	5.13
NC(=O)c1cccc(-c2coc3c(C(=O)NCCc4ccccc4)cccc23)c1	13.3 µM (inactive)	–
CCCCNC(=O)c1cn(-c2ccc(OCC)cc2)c(=O)c2cc(OC)c(OC)cc12	39.2 µM (inactive)	–
CC(=O)Nc1cc(-c2ccccc2)cn2c(-c3cccc(C(C)=O)c3)cnc12	16 µM (inactive)	–
Cc1ccc(NC(=O)c2cc(-c3cccs3)nc3ccccc23)nc1	> 79 µM (inactive)	–
COc1ccc(NC(=O)c2oc3ccc(S(=O)(=O)N4CCOCC4)cc3c2C)cc1	15.3 µM (inactive)	–
COc1cc(/C=N/NC(=O)c2cccnc2)ccc1OCC(=O)Nc1ccccc1Cl	–	5.11

Structure (SMILES)	IC50	pIC50
O=C(NCc1ccco1)C(c1ccccc1)N(C(=O)Cc1cccs1)c1ccccc1F (centres undefined)	22.9 µM (inactive)	–
CC12C=CC(=O)CC1CCC1C2CCC2(C)C(O)C(O)CC12 (centres undefined)	21 µM (inactive)	–
COc1cc(-c2cc(C(=O)Nc3cccc(C(C)=O)c3)c3ccccc3n2)cc(OC)c1OC	–	5.01
COc1cc(-c2cc3nc(NCCc4ccc(S(N)(=O)=O)cc4)ccn3n2)cc(OC)c1OC	15.6 µM (inactive)	–
CCn1nc(C(=O)NNC(=O)c2cc(Cl)ccc2OC)c2ccccc2c1=O	> 79 µM (inactive)	–
O=C1OCCN1C(=O)[C@H]1[C@H](c2ccc([N+](=O)[O-])cc2)C(c2ccc(F)cc2)=NN1c1ccc(Br)cc1	–	5.05
COc1ccccc1N1CCN(C(=O)c2ccc3nc(-c4ccco4)c(-c4ccco4)nc3c2)CC1	14 µM (inactive)	–
COC(=O)c1cc(OC)c(OC)cc1NC(=O)c1ccc(C)o1	23.4 µM (inactive)	–
Cn1c(C(=O)NCCc2ccsc2)cc2c(=O)n(C)c3ccccc3c21	11.3 µM (inactive)	–
COc1ccc(CCNc2nc(-c3cccnc3)nc3ccccc23)cc1OC	–	5.08
COCCNC(=O)COC(=O)c1ccc(OCC(=O)Nc2ccccc2OC)c(OC)c1	22 µM (inactive)	–
Nc1nonc1-n1nnc(C(=O)N/N=C/c2ccccn2)c1CNc1ccccc1	41.4 µM (inactive)	–
Cc1ccc(-n2cc(-c3ccccc3)c3c(N4CCOCC4)ncnc32)cc1	–	5.08
COc1cc(-c2cc(C(=O)OCC(=O)NC3CC3)c3ccccc3n2)cc(OC)c1OC	13.2 µM (inactive)	–
Cc1nc(NC(=O)c2cc3c(C)nn(-c4ccccc4)c3s2)sc1C(=O)Nc1ccccc1	> 79 µM (inactive)	–
COc1cc(C(=O)N/N=C/c2ccc(OC(=O)c3cccc(C)c3)c(OC)c2)ccc1O	14.2 µM (inactive)	–
COc1cc(Nc2nc3ccccc3n3nnnc23)cc(OC)c1OC	–	5.05
CC(C)(C)OC(=O)N1CCC[C@H]1c1nnc(SCC(=O)Nc2ccc(Br)cc2)o1	19.8 µM (inactive)	–
CCC1(CC)NC(=O)N(CC(=O)OCC(=O)Nc2ccccc2[N+](=O)[O-])C1=O	21.4 µM (inactive)	–
COc1ccc(CSc2nc3ccccc3c(=O)[nH]2)cc1F	> 79 µM (inactive)	–
COc1ccc(-c2nn(-c3ccccc3)cc2C(=O)Nc2nccs2)cc1	16.4 µM (inactive)	–
COc1ccc(-c2cc3nc(-c4ccccc4)cc(N4CCN(C(C)=O)CC4)n3n2)cc1	16.1 µM (inactive)	–

Structure (SMILES)	IC50	pIC50
CCOC(=O)C1CCN(C(c2cc3c(C)ccc(C)c3[nH]c2=O)c2nnnn2C2CCCCC2)CC1 (centres undefined)	19.2 µM (inactive)	–
CS(=O)(=O)Nc1cccc(NC(=O)c2cccc3c(-c4cccc(C(N)=O)c4)coc23)c1	–	5.22
COc1ccc(C(C(=O)NCc2ccccc2)N(Cc2ccco2)C(=O)c2snc(C(N)=O)c2N)cc1 (centres undefined)	–	5.21
COc1cccc(C(=O)Nc2cc(C)c3c(=O)oc4ccccc4c3n2)c1	> 79 µM (inactive)	–
COc1ccc(-c2cc(NC=O)c3ncc(-c4cccc(C(C)=O)c4)n3c2)cc1	> 79 µM (inactive)	–
C[C@H](NC(=O)c1nc[nH]c1C(=O)NCC(=O)OCc1ccccc1)C(=O)OCc1ccccc1	–	5.55
O=C(N/N=C\c1ccccn1)c1cccc(C(=O)N/N=C\c2ccccn2)n1	10.2 µM (inactive)	–
O=C(c1cc2nc(-c3ccccc3)cc(-c3ccccc3)n2n1)N1CCN(C(=O)c2ccco2)CC1	10.3 µM (inactive)	–
Cn1c(=O)c2[nH]c(NN=Cc3ccc(Br)cc3)nc2n(C)c1=O	10.6 µM (inactive)	–
COc1cc(C(=O)NCC(=O)N/N=C/c2ccc(-c3cccc([N+](=O)[O-])c3)o2)cc(OC)c1OC	17.5 µM (inactive)	–
COc1cc2nc(Nc3ccc(F)cc3)nc(N)c2cc1OC	> 79 µM (inactive)	–
Cc1ccc(C)c(C(=O)Nc2cc(C)nn2-c2nc(C)cc(C)n2)c1	30.1 µM (inactive)	–
CCOc1ccc2ccccc2c1C(=O)N[C@@H]1C(=O)N2[C@@H]1SC(C)(C)[C@@H]2C(=O)O	36.1 µM (inactive)	–
COC(=O)c1ccc(N)c(N=CC2=C(O)CC(C)(C)CC2=O)c1	11.9 µM (inactive)	–
O=C(Nc1ccc2c(c1)OCO2)c1cnn2c(C(F)(F)F)cc(-c3ccco3)nc12	> 79 µM (inactive)	–
Cn1c(=O)[nH]c(=O)c2c1nc(N(CCO)Cc1ccccc1)n2CCCc1ccccc1	> 79 µM (inactive)	–
Cc1cccc(NC(=O)c2nc[nH]c2C(=O)NCCCCCCNC(=O)c2[nH]cnc2C(=O)Nc2cccc(C)c2)c1	> 79 µM (inactive)	–
COc1ccc(-c2cc(C(F)(F)F)n3nc(C(=O)N4CCN(C(=O)c5ccco5)CC4)cc3n2)cc1	–	5.42
CCOC(=O)c1ccc(-c2ccc3ncnc(NCc4csc(C)n4)c3c2)o1	> 79 µM (inactive)	–
O=C(NCC1CCCO1)C(c1ccc(F)cc1)N(C(=O)Cn1nnc(-c2ccc(F)cc2)n1)c1cccc(O)c1 (centres undefined)	18.3 µM (inactive)	–

Source: PubChem BioAssay AID602210 (Sanford-Burnham Center for Chemical Genomics, 2012)
